Test results reported in US6706663B2, “Herbicidal 3-heterocyclic substituted benzisothiazole and benzisoxazole compounds” (Wyeth, priority 2000, dated 2004).

What was measured:
GALAP (Galium aparine) = experiment: Preemergence herbicidal evaluation; type: in vivo; details: preemergence, rated 4-5 weeks after treatment
Summary of the method: (§1)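 Visual 0-9 rating versus untreated control, taken four to five weeks post-treatment, scoring stand, vigor, malformation, size, chlorosis and overall appearance. Compound applied as aqueous acetone spray to freshly seeded soil cups, then kept under standard greenhouse care.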

ZEAMX (Corn, Field) = experiment: Postemergence herbicidal evaluation; type: in vivo, Zea mays, L.
Summary of the method: (§2)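 Visual 0–9 injury scores versus control plants, covering stand, vigour, malformation, size, chlorosis and general appearance, taken four to five weeks post-spray and averaged over replicate tests. Plants were sprayed at roughly two weeks old and held on greenhouse benches.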

[1] = test system: TRZAWR (Wheat, Winter, cv Riband); experiment: Postemergence herbicidal evaluation; type: in vivo, Triticum aestivum
Summary of the method: as §2

SETVI (Setaria viridis) [2] = experiment: Postemergence herbicidal evaluation; type: in vivo, (L.) Beau
Summary of the method: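 Ratings use a 0-9 visual scale covering stand, vigor, malformation, size, chlorosis and appearance versus a control, scored 4-5 weeks post-spray. Roughly two-week-old seedlings received about 0.0040-1.000 kg/ha active, applied in 50/50 acetone/water with 0.5% TWEEN 20. Multiple tests per compound were averaged.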

SETVI (Setaria viridis) [3] = experiment: Preemergence herbicidal evaluation; type: in vivo, (L.) Beau; details: preemergence, rated 4-5 weeks after treatment
Summary of the method: as §1

[4] = test system: ECHCG (Echinochloa crus-galli); experiment: Preemergence herbicidal evaluation; type: in vivo, (L.) Beau; details: preemergence, rated 4-5 weeks after treatment
Summary of the method: as §1

[5] = test system: TRZAWR (Wheat, Winter, cv Riband); experiment: Preemergence herbicidal evaluation; type: in vivo, Triticum aestivum; details: preemergence, rated 4-5 weeks after treatment
Summary of the method: as §1

[6] = test system: IPOHE (Ipomoea hederacea); experiment: Postemergence herbicidal evaluation; type: in vivo, (L.) Jacq.
Summary of the method: as §2

ORYSAT (Rice, Tebonnet) [7] = experiment: Preemergence herbicidal evaluation; type: in vivo, Oryza sativa, (L.) Tebonnet; details: preemergence, rated 4-5 weeks after treatment
[8] = test system: CHEAL (Chenopodium album); experiment: Preemergence herbicidal evaluation; type: in vivo, L.; details: preemergence, rated 4-5 weeks after treatment
Summary of the method: as §1

[9] = test system: CASOB (Cassia obtusifolia); experiment: Preemergence herbicidal evaluation; type: in vivo, L.; details: preemergence, rated 4-5 weeks after treatment
Summary of the method: as §1

[10] = test system: AMBEL (Ambrosia artemisifolia); experiment: Preemergence herbicidal evaluation; type: in vivo, L.; details: preemergence, rated 4-5 weeks after treatment
Summary of the method: as §1

[11] = test system: ECHORC (Echinochloa oryzoides); experiment: Flooded paddy, preemergence weed control; type: in vivo, Echinochloa oryzoides (Ard.) Fritsch.; details: rated 3-4 weeks after treatment, 0-9 rating scale
Summary of the method: (§3)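 Preemergence, flooded: propagules planted at 0.5 cm depth in silt loam, water level maintained at 1.5 to 3 cm over soil, containers kept on greenhouse benches. Activity scored 0-9 by eye relative to a control plant.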

[12] = test system: ABUTH (Abutilon theophrasti); experiment: Preemergence herbicidal evaluation; type: in vivo, Medic.; details: preemergence, rated 4-5 weeks after treatment
[13] = test system: CYPSE (Cyperus serotinus); experiment: Flooded paddy, preemergence weed control; type: in vivo, Rottb.; details: rated 3-4 weeks after treatment, 0-9 rating scale
Summary of the method: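 Herbicidal effect was scored visually on a 0–9 scale against an untreated control 3–4 weeks after treatment. Compounds were applied preemergence as 50/50 v/v aqueous/acetone mixtures into flood water (1.5–3 cm deep over silt loam), at roughly 0.0080 to 0.1250 kg/ha active ingredient.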

[14] = test system: GLXMAW (Soybean, Williams); experiment: Postemergence herbicidal evaluation; type: in vivo, Glycine max, (L.) Merr. cv Williams
Summary of the method: as §2

[15] = test system: MOOVA (Monochoria vaginalis); experiment: Flooded paddy, preemergence weed control; type: in vivo, Presl.; details: rated 3-4 weeks after treatment, 0-9 rating scale
Summary of the method: as §3

[16] = test system: ECHCG (Echinochloa crus-galli); experiment: Postemergence herbicidal evaluation; type: in vivo, (L.) Beau
Summary of the method: as §2

ORYSAT (Rice, Tebonnet) [17] = experiment: Postemergence herbicidal evaluation; type: in vivo, Oryza sativa, (L.) Tebonnet
Summary of the method: as §2

SMILES: Cn1c(C(F)(F)F)cc(=O)n(-c2ccc3snc(-c4cccs4)c3c2)c1=O [Compound 3, 1-methyl-3-[3-(2-thienyl)-1,2-benzisothiazol-5-yl]-6-(trifluoromethyl)uracil]
- GALAP preemergence herbicidal rating (GALAP (Galium aparine); Rate 0.0620 kg/ha): 9.0
- GALAP preemergence herbicidal rating (GALAP (Galium aparine); Rate 0.1250 kg/ha): 9.0
- GALAP preemergence herbicidal rating (GALAP (Galium aparine); Rate 0.2500 kg/ha): 9.0
- Postemergence herbicidal rating, ZEAMX (ZEAMX (Corn, Field); rate 0.0320 kg/ha): 5.0
- Postemergence herbicidal rating, ZEAMX (ZEAMX (Corn, Field); rate 0.0620 kg/ha): 5.5
- Postemergence herbicidal rating, ZEAMX (ZEAMX (Corn, Field); rate 0.1250 kg/ha): 6.5
- Postemergence herbicidal rating, TRZAWR ([1]; rate 0.0320 kg/ha): 2.5
- Postemergence herbicidal rating, TRZAWR ([1]; rate 0.0620 kg/ha): 4.5
- Postemergence herbicidal rating, TRZAWR ([1]; rate 0.1250 kg/ha): 5.0
- Postemergence herbicidal rating, SETVI (SETVI (Setaria viridis) [2]; rate 0.0320 kg/ha): 3.0
- Postemergence herbicidal rating, SETVI (SETVI (Setaria viridis) [2]; rate 0.0620 kg/ha): 9.0
- Postemergence herbicidal rating, SETVI (SETVI (Setaria viridis) [2]; rate 0.1250 kg/ha): 9.0
- SETVI preemergence herbicidal rating (SETVI (Setaria viridis) [3]; Rate 0.0620 kg/ha): 9.0
- SETVI preemergence herbicidal rating (SETVI (Setaria viridis) [3]; Rate 0.1250 kg/ha): 8.5
- SETVI preemergence herbicidal rating (SETVI (Setaria viridis) [3]; Rate 0.2500 kg/ha): 9.0
- ECHCG preemergence herbicidal rating ([4]; Rate 0.0620 kg/ha): 7.5
- ECHCG preemergence herbicidal rating ([4]; Rate 0.1250 kg/ha): 7.0
- ECHCG preemergence herbicidal rating ([4]; Rate 0.2500 kg/ha): 9.0
- TRZAWR preemergence herbicidal rating ([5]; Rate 0.0620 kg/ha): 4.0
- TRZAWR preemergence herbicidal rating ([5]; Rate 0.1250 kg/ha): 5.0
- TRZAWR preemergence herbicidal rating ([5]; Rate 0.2500 kg/ha): 6.0
- Postemergence herbicidal rating, IPOHE ([6]; rate 0.0320 kg/ha): 9.0
- Postemergence herbicidal rating, IPOHE ([6]; rate 0.0620 kg/ha): 9.0
- Postemergence herbicidal rating, IPOHE ([6]; rate 0.1250 kg/ha): 9.0
- ORYSAT preemergence herbicidal rating (ORYSAT (Rice, Tebonnet) [7]; Rate 0.0620 kg/ha): 6.0
- ORYSAT preemergence herbicidal rating (ORYSAT (Rice, Tebonnet) [7]; Rate 0.1250 kg/ha): 5.0
- ORYSAT preemergence herbicidal rating (ORYSAT (Rice, Tebonnet) [7]; Rate 0.2500 kg/ha): 5.0
- CHEAL preemergence herbicidal rating ([8]; Rate 0.0620 kg/ha): 9.0
- CHEAL preemergence herbicidal rating ([8]; Rate 0.1250 kg/ha): 9.0
- CHEAL preemergence herbicidal rating ([8]; Rate 0.2500 kg/ha): 9.0
- CASOB preemergence herbicidal rating ([9]; Rate 0.0620 kg/ha): 4.0
- CASOB preemergence herbicidal rating ([9]; Rate 0.1250 kg/ha): 4.5
- CASOB preemergence herbicidal rating ([9]; Rate 0.2500 kg/ha): 5.5
- AMBEL preemergence herbicidal rating ([10]; Rate 0.0620 kg/ha): 8.0
- AMBEL preemergence herbicidal rating ([10]; Rate 0.1250 kg/ha): 9.0
- AMBEL preemergence herbicidal rating ([10]; Rate 0.2500 kg/ha): 9.0
- herbicidal rating, ECHORC ([11]; rate 0.0080 kg/ha): 2.0
- herbicidal rating, ECHORC ([11]; rate 0.0320 kg/ha): 8.0
- herbicidal rating, ECHORC ([11]; rate 0.1250 kg/ha): 9.0
- ABUTH preemergence herbicidal rating ([12]; Rate 0.0620 kg/ha): 8.5
- ABUTH preemergence herbicidal rating ([12]; Rate 0.1250 kg/ha): 9.0
- ABUTH preemergence herbicidal rating ([12]; Rate 0.2500 kg/ha): 9.0
- herbicidal rating, CYPSE ([13]; rate 0.0080 kg/ha): 0.0
- herbicidal rating, CYPSE ([13]; rate 0.0320 kg/ha): 6.5
- herbicidal rating, CYPSE ([13]; rate 0.1250 kg/ha): 6.5
- Postemergence herbicidal rating, GLXMAW ([14]; rate 0.0320 kg/ha): 6.0
- Postemergence herbicidal rating, GLXMAW ([14]; rate 0.0620 kg/ha): 6.5
- Postemergence herbicidal rating, GLXMAW ([14]; rate 0.1250 kg/ha): 8.5
- herbicidal rating, MOOVA ([15]; rate 0.0080 kg/ha): 9.0
- herbicidal rating, MOOVA ([15]; rate 0.0320 kg/ha): 9.0
- herbicidal rating, MOOVA ([15]; rate 0.1250 kg/ha): 9.0
- Postemergence herbicidal rating, ECHCG ([16]; rate 0.0320 kg/ha): 2.0
- Postemergence herbicidal rating, ECHCG ([16]; rate 0.0620 kg/ha): 3.0
- Postemergence herbicidal rating, ECHCG ([16]; rate 0.1250 kg/ha): 4.0
- Postemergence herbicidal rating, ORYSAT (ORYSAT (Rice, Tebonnet) [17]; rate 0.0320 kg/ha): 3.0
- Postemergence herbicidal rating, ORYSAT (ORYSAT (Rice, Tebonnet) [17]; rate 0.0620 kg/ha): 4.0
- Postemergence herbicidal rating, ORYSAT (ORYSAT (Rice, Tebonnet) [17]; rate 0.1250 kg/ha): 4.5
